These results are taken from EPA's ToxValDB 9.5 (doi:10.2903/j.efsa.2008.187r).

“And” between values parts separate entries of the source, which are not always exact repeats. Equal entries are not always repeated.

The test system of one series is Colinus virginianus. The settings on record: oral; for NOEL: short-term.
The next series concerns Coturnix japonica. The settings on record: acute; oral; mortality.
In another series the test system is Daphnia magna. The settings on record: chronic/long-term; duration: 21 days; reproduction.
For the next series, the system named is Tagia sp. The settings on record: chronic/long-term; duration: 8 weeks.
For the next series, the system named is Apis mellifera. The settings on record: acute, mortality.

With `O.O.[Cu]` [Copper hydroxide (Cu(OH)2)], the LD50 with Colinus virginianus (acute, mortality) turned out to be 223 mg/kg; in the series with Coturnix japonica, 556 mg/kg. In addition, the NOEL in the series on Colinus virginianus (diet) is 124 mg/kg-day and 132 mg/kg-day; with Anas platyrhynchos (reproductive), 7.05 mg/kg-day; in the series on Anas platyrhynchos (short-term, oral, feed), 216 mg/kg-day and 191 mg/kg-day.
In the series on Colinus virginianus (diet), `[Cu+].[Cu+].[O-2]` [Cuprous oxide] had an NOEL of 31.9 mg/kg-day. The molecule further registered an LD50 in the series on Coturnix japonica of 1180 mg/kg.
Take `[Cl-].[Cu+2].[Cu+2].[OH-].[OH-].[OH-]` [Dicopper chloride trihydroxide]: the NOEC in the series with Daphnia magna was 0.0076 mg/L; with Tagia sp., less than 15 mg/kg. Moreover, the LC50 in the series with Colinus virginianus (acute, diet, mortality) is 333 mg/kg-day. The LD50 with Colinus virginianus (acute, mortality) was determined as 511 mg/kg; with Apis mellifera (dermal), 44.3 µg/piece; in the series with Apis mellifera (oral, unspecified), 12.1 µg/piece.
